Assay results: US11000033B2, “Ketone or oxime compound, and herbicide” (NISSAN CHEMICAL CORPORATION, priority 2014, dated 2021)

What was measured:
Format in all cases: in vivo
[1] = tested on: Echinochloa oryzacola Vasing.; assay: Test Example 1: herbicidal activity, application before weed generation in submerged conditions (symbol A); conditions: application herbicide amount 320 g/ha
Outline: (§1)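 0–5 visual score, 3 wk post-application. Submerged pots, alluvial soil, water 4 cm; seeds sown mixed, rice at 2.5 leaves transplanted. Emulsion diluted to predetermined dose, applied to water surface at sowing. 25–30 °C greenhouse.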

Monochoria vaginalis = assay: Test Example 1: herbicidal activity, application before weed generation in submerged conditions (symbol C); conditions: application herbicide amount 320 g/ha
Outline: as §1

[2] = tested on: directly sowed rice plant; assay: Test Example 3: effect on crop by foliage application, Wagner pot (symbol b); conditions: application herbicide amount 320 g/ha; for b (directly sowed rice plant) effect on crop grade: Table 24
Outline: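 Plants are raised from seed in flooded paddy conditions: water stands 0.1–0.5 cm over alluvial soil, and the pot is kept in a greenhouse at 25–30 °C. Species sown are barnyardgrass (E. crus-galli var. crus-galli), Leptochloa chinensis, Cyperus difformis and rice.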

Digitaria ciliaris = assay: Test Example 4: herbicidal effect by soil treatment (symbol F); conditions: for F: Digitaria ciliaris, herbicidal effect grade: 320 g/ha; for Herbicidal effect grade, F: Digitaria ciliaris: application herbicide amount 320 g/ha
Outline: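 Seeds were sown in sterilized diluvial soil, covered with about 1.5 cm of soil, and the soil surface was sprayed with a water-diluted emulsion of the compound at a predetermined rate. Plants grew in a greenhouse at 25° C. to 30° C.; effects were scored visually 3 weeks after application.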

soybean [3] = assay: Test Example 4: effect on crop by soil treatment (symbol d); conditions: for d: soybean, effect grade on crop: 320 g/ha; for Effect on crop grade, d: soybean: application herbicide amount 320 g/ha
Outline: (§2)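 Seeds were sown in spots on sterilized diluvial soil in a plastic box and covered with about 1.5 cm of soil. Plants were then grown in a greenhouse at 25° C. to 30° C.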

wheat [4] = assay: Test Example 4: effect on crop by soil treatment (symbol e); conditions: for e: wheat, effect grade on crop: 320 g/ha; for Effect on crop grade, e: wheat: application herbicide amount 320 g/ha
Outline: as §2

rapeseed = assay: Test Example 4: effect on crop by soil treatment (symbol g); conditions: for g: rapeseed, effect grade on crop: 320 g/ha; for Effect on crop grade, g: rapeseed: application herbicide amount 320 g/ha
Outline: as §2

[5] = tested on: Echinochloa crus-galli var. crus-galli; assay: Test Example 5: herbicidal effect by foliage application, plastic box (symbol H); conditions: 320 g/ha, 3 weeks after application
Outline: (§3)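 Effect is rated 3 weeks after a foliar spray of water-diluted emulsion concentrate at a predetermined herbicide amount. Plants had grown 14 days in a 25° C. to 30° C. greenhouse from seed in sterilized diluvial soil.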

Lolium multiflorum Lam. = assay: Test Example 5: herbicidal effect by foliage application, plastic box (symbol K); conditions: 320 g/ha, 3 weeks after application
Outline: as §3

Amaranthus retroflexus = assay: Test Example 5: herbicidal effect by foliage application, plastic box (symbol N); conditions: 320 g/ha, 3 weeks after application
Outline: as §3

Chenopodium album = assay: Test Example 5: herbicidal effect by foliage application, plastic box (symbol O); conditions: 320 g/ha, 3 weeks after application
Outline: as §3

Galium spurium = assay: Test Example 5: herbicidal effect by foliage application, plastic box (symbol Q); conditions: 320 g/ha, 3 weeks after application
Outline: as §3

Veronica persica = assay: Test Example 5: herbicidal effect by foliage application, plastic box (symbol R); conditions: 320 g/ha, 3 weeks after application
Outline: as §3

soybean [6] = assay: Test Example 5: effect on crop by foliage application, plastic box (symbol d); conditions: 320 g/ha, 3 weeks after application
Outline: (§4)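 Box culture: sterile diluvial soil, seeds spot-sown, ~1.5 cm cover, raised under glass at 25–30° C.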

wheat [7] = assay: Test Example 5: effect on crop by foliage application, plastic box (symbol e); conditions: 320 g/ha, 3 weeks after application
Outline: as §4

beet = assay: Test Example 5: effect on crop by foliage application, plastic box (symbol f); conditions: 320 g/ha, 3 weeks after application
Outline: as §4

Structure (SMILES): CCC(Oc1ccc2ncc(Br)cc2c1)C(=O)OC1=C(c2c(C)cc(C)cc2C)C(=O)C(CC(C)=NOC)C1 (stereo not drawn) [1-140]
- Herbicidal effect grade, A: Echinochloa oryzacola Vasing. [1]: 5 (Herbicidal ratio of 90% or more (almost completely withered))
- Herbicidal effect grade, C: Monochoria vaginalis (Monochoria vaginalis): 1 (Herbicidal ratio of 5% or higher and lower than 20%)
- effect on crop b (directly sowed rice plant), grade 0-5 [2]: 5 (Herbicidal ratio of 90% or more (almost completely withered))
- F: Digitaria ciliaris, herbicidal effect grade (Digitaria ciliaris): 5 (Herbicidal ratio of 90% or more (almost completely withered))
- d: soybean, effect grade on crop (soybean [3]): 1 (Herbicidal ratio of 5% or higher and lower than 20%)
- e: wheat, effect grade on crop (wheat [4]): 5 (Herbicidal ratio of 90% or more (almost completely withered))
- g: rapeseed, effect grade on crop (rapeseed): 4 (Herbicidal ratio of 70% or higher and lower than 90%)
- H: Echinochloa crus-galli var. crus-galli, herbicidal effect (criteria 0-5) [5]: 5 (Herbicidal ratio of 90% or more (almost completely withered))
- K: Lolium multiflorum Lam., herbicidal effect (criteria 0-5) (Lolium multiflorum Lam.): 5 (Herbicidal ratio of 90% or more (almost completely withered))
- N: Amaranthus retroflexus, herbicidal effect (criteria 0-5) (Amaranthus retroflexus): 3 (Herbicidal ratio of 40% or higher and lower than 70%)
- O: Chenopodium album, herbicidal effect (criteria 0-5) (Chenopodium album): 2 (Herbicidal ratio of 20% or higher and lower than 40%)
- Q: Galium spurium, herbicidal effect (criteria 0-5) (Galium spurium): 2 (Herbicidal ratio of 20% or higher and lower than 40%)
- R: Veronica persica, herbicidal effect (criteria 0-5) (Veronica persica): 3 (Herbicidal ratio of 40% or higher and lower than 70%)
- d: soybean, effect on crop (criteria 0-5) (soybean [6]): 3 (Herbicidal ratio of 40% or higher and lower than 70%)
- e: wheat, effect on crop (criteria 0-5) (wheat [7]): 5 (Herbicidal ratio of 90% or more (almost completely withered))
- f: beet, effect on crop (criteria 0-5) (beet): 3 (Herbicidal ratio of 40% or higher and lower than 70%)

Structure (SMILES): CON=C(C)CC1C(O)=C(c2c(C)cc(C)cc2C)C(=O)C1C (mixture of isomers) [12-002]
- A (Echinochloa oryzacola Vasing.) herbicidal effect grade [1]: 5 (Herbicidal ratio of 90% or more (almost completely withered))
- C (Monochoria vaginalis) herbicidal effect grade (Monochoria vaginalis): 2 (Herbicidal ratio of 20% or higher and lower than 40%)
- b (directly sowed rice plant) effect on crop grade [2]: 5 (Herbicidal ratio of 90% or more (almost completely withered))
- Herbicidal effect grade, F: Digitaria ciliaris (Digitaria ciliaris): 4 (Herbicidal ratio of 70% or higher and lower than 90%)
- Effect on crop grade, d: soybean (soybean [3]): 0 (Herbicidal ratio of 5% or lower (almost no effect))
- Effect on crop grade, e: wheat (wheat [4]): 0 (Herbicidal ratio of 5% or lower (almost no effect))
- Effect on crop grade, g: rapeseed (rapeseed): 1 (Herbicidal ratio of 5% or higher and lower than 20%)
- H: Echinochloa crus-galli var. crus-galli, herbicidal effect grade [5]: 5 (Herbicidal ratio of 90% or more (almost completely withered))
- K: Lolium multiflorum Lam., herbicidal effect grade (Lolium multiflorum Lam.): 5 (Herbicidal ratio of 90% or more (almost completely withered))
- N: Amaranthus retroflexus, herbicidal effect grade (Amaranthus retroflexus): 0 (Herbicidal ratio of 5% or lower (almost no effect))
- O: Chenopodium album, herbicidal effect grade (Chenopodium album): 2 (Herbicidal ratio of 20% or higher and lower than 40%)
- Q: Galium spurium, herbicidal effect grade (Galium spurium): 4 (Herbicidal ratio of 70% or higher and lower than 90%)
- R: Veronica persica, herbicidal effect grade (Veronica persica): 4 (Herbicidal ratio of 70% or higher and lower than 90%)
- d: soybean, effect on crop grade (soybean [6]): 1 (Herbicidal ratio of 5% or higher and lower than 20%)
- e: wheat, effect on crop grade (wheat [7]): 2 (Herbicidal ratio of 20% or higher and lower than 40%)
- f: beet, effect on crop grade (beet): 3 (Herbicidal ratio of 40% or higher and lower than 70%)

Structure (SMILES): COCCON=C(CC1CC(O)=C(c2c(C)cc(Br)cc2C)C1=O)C1CC1 (stereo not drawn) [9-019]
- A (Echinochloa oryzacola Vasing.) herbicidal effect grade [1]: 4 (Herbicidal ratio of 70% or higher and lower than 90%)
- C (Monochoria vaginalis) herbicidal effect grade (Monochoria vaginalis): 0 (Herbicidal ratio of 5% or lower (almost no effect))
- b (directly sowed rice plant) effect on crop grade [2]: 5 (Herbicidal ratio of 90% or more (almost completely withered))
- Herbicidal effect grade, F: Digitaria ciliaris (Digitaria ciliaris): 0 (Herbicidal ratio of 5% or lower (almost no effect))
- Effect on crop grade, d: soybean (soybean [3]): 0 (Herbicidal ratio of 5% or lower (almost no effect))
- Effect on crop grade, e: wheat (wheat [4]): 0 (Herbicidal ratio of 5% or lower (almost no effect))
- Effect on crop grade, g: rapeseed (rapeseed): 0 (Herbicidal ratio of 5% or lower (almost no effect))
- H: Echinochloa crus-galli var. crus-galli, herbicidal effect grade [5]: 5 (Herbicidal ratio of 90% or more (almost completely withered))
- K: Lolium multiflorum Lam., herbicidal effect grade (Lolium multiflorum Lam.): 5 (Herbicidal ratio of 90% or more (almost completely withered))
- N: Amaranthus retroflexus, herbicidal effect grade (Amaranthus retroflexus): 0 (Herbicidal ratio of 5% or lower (almost no effect))
- O: Chenopodium album, herbicidal effect grade (Chenopodium album): 0 (Herbicidal ratio of 5% or lower (almost no effect))
- Q: Galium spurium, herbicidal effect grade (Galium spurium): 0 (Herbicidal ratio of 5% or lower (almost no effect))
- R: Veronica persica, herbicidal effect grade (Veronica persica): 0 (Herbicidal ratio of 5% or lower (almost no effect))
- d: soybean, effect on crop grade (soybean [6]): 0 (Herbicidal ratio of 5% or lower (almost no effect))
- e: wheat, effect on crop grade (wheat [7]): 0 (Herbicidal ratio of 5% or lower (almost no effect))
- f: beet, effect on crop grade (beet): 0 (Herbicidal ratio of 5% or lower (almost no effect))

Structure (SMILES): CC(CC1CC(O)=C(c2c(C)cc(C)cc2C)C1=O)=NOCc1ccccc1Cl (stereo not drawn) [1-113]
- Herbicidal effect grade, A: Echinochloa oryzacola Vasing. [1]: 5 (Herbicidal ratio of 90% or more (almost completely withered))
- Herbicidal effect grade, C: Monochoria vaginalis (Monochoria vaginalis): 4 (Herbicidal ratio of 70% or higher and lower than 90%)
- F: Digitaria ciliaris, herbicidal effect grade (Digitaria ciliaris): 1 (Herbicidal ratio of 5% or higher and lower than 20%)
- d: soybean, effect grade on crop (soybean [3]): 0 (Herbicidal ratio of 5% or lower (almost no effect))
- e: wheat, effect grade on crop (wheat [4]): 0 (Herbicidal ratio of 5% or lower (almost no effect))
- g: rapeseed, effect grade on crop (rapeseed): 0 (Herbicidal ratio of 5% or lower (almost no effect))
- H: Echinochloa crus-galli var. crus-galli, herbicidal effect (criteria 0-5) [5]: 4 (Herbicidal ratio of 70% or higher and lower than 90%)
- K: Lolium multiflorum Lam., herbicidal effect (criteria 0-5) (Lolium multiflorum Lam.): 5 (Herbicidal ratio of 90% or more (almost completely withered))
- N: Amaranthus retroflexus, herbicidal effect (criteria 0-5) (Amaranthus retroflexus): 0 (Herbicidal ratio of 5% or lower (almost no effect))
- O: Chenopodium album, herbicidal effect (criteria 0-5) (Chenopodium album): 2 (Herbicidal ratio of 20% or higher and lower than 40%)
- Q: Galium spurium, herbicidal effect (criteria 0-5) (Galium spurium): 0 (Herbicidal ratio of 5% or lower (almost no effect))
- R: Veronica persica, herbicidal effect (criteria 0-5) (Veronica persica): 4 (Herbicidal ratio of 70% or higher and lower than 90%)
- d: soybean, effect on crop (criteria 0-5) (soybean [6]): 0 (Herbicidal ratio of 5% or lower (almost no effect))
- e: wheat, effect on crop (criteria 0-5) (wheat [7]): 3 (Herbicidal ratio of 40% or higher and lower than 70%)
- f: beet, effect on crop (criteria 0-5) (beet): 0 (Herbicidal ratio of 5% or lower (almost no effect))
